# Where “and” joins values, the source holds several entries; their conditions need not be identical. Identical values can stand only once. Toxic doses and inconclusive results are not listed.
# Test system: L1210 leukemia ip in BDF1 mice, survival T/C
# Assay: NCI In Vivo Anticancer Drug Screen. Data for tumor model L1210 Leukemia (intraperitoneal) in B6D2F1 (BDF1) mice
# Conditions: endpoint: mean survival time, higher = longer survival
# Summary of the method: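 Tumor cells were implanted, animals were treated, and survival was followed. The result divides the treated measurement by the vehicle-control measurement.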
# [1] = dose: 100.0 mg/kg/injection, schedule: Q04DX003 (ip), vehicle: saline with Tween-80
# [2] = dose: 200.0 mg/kg/injection, schedule: Q04DX003 (ip), vehicle: saline with Tween-80
# [3] = dose: 400.0 mg/kg/injection, schedule: Q04DX003 (ip), vehicle: saline with Tween-80
# [4] = dose: 100.0 mg/kg/injection, schedule: Q04DX002 (ip), vehicle: Klucel (hydroxypropylcellulose) (HPC)
# [5] = dose: 200.0 mg/kg/injection, schedule: Q04DX002 (ip), vehicle: Klucel (hydroxypropylcellulose) (HPC)
# [6] = dose: 400.0 mg/kg/injection, schedule: Q04DX002 (ip), vehicle: Klucel (hydroxypropylcellulose) (HPC)
smiles,measurement,setting,value
O=C1C(c2ccccc2)CN1CC1CCCCC1 (centres undefined),T/C,"dose: 100.0 mg/kg/injection, schedule: Q01DX001 (ip), vehicle: Klucel (hydroxypropylcellulose) (HPC)",98 % of control
same,T/C,"dose: 200.0 mg/kg/injection, schedule: Q01DX001 (ip), vehicle: Klucel (hydroxypropylcellulose) (HPC)",101 % of control
same,T/C,"dose: 400.0 mg/kg/injection, schedule: Q01DX001 (ip), vehicle: Klucel (hydroxypropylcellulose) (HPC)",95 % of control
CC(Cc1ccccc1)Cc1ccccc1,T/C,[1],96 % of control
same,T/C,[2],88 % of control
same,T/C,[3],98 % of control
COc1ccc(/C=C2\C=Nc3ccccc32)cc1,T/C,[4],94 % of control
same,T/C,[5],97 % of control
same,T/C,[6],108 % of control
Cc1cccc(CNCC(=O)O)c1,T/C,"dose: 100.0 mg/kg/injection, schedule: Q01DX009 (ip), vehicle: saline",105 % of control
same,T/C,"dose: 100.0 mg/kg/injection, schedule: Q04DX003 (ip), vehicle: saline",92 % of control
same,T/C,"dose: 200.0 mg/kg/injection, schedule: Q01DX009 (ip), vehicle: saline",92 % of control
same,T/C,"dose: 200.0 mg/kg/injection, schedule: Q04DX003 (ip), vehicle: saline",98 % of control
same,T/C,"dose: 400.0 mg/kg/injection, schedule: Q01DX009 (ip), vehicle: saline",105 % of control
same,T/C,"dose: 400.0 mg/kg/injection, schedule: Q04DX003 (ip), vehicle: saline",98 % of control
COc1ccc(NC(=O)N(CCCl)N=O)cc1OC,T/C,"dose: 0.5 mg/kg/injection, schedule: Q01DX009 (ip), vehicle: Klucel (hydroxypropylcellulose) (HPC)",115 % of control
same,T/C,"dose: 1.0 mg/kg/injection, schedule: Q01DX009 (ip), vehicle: Klucel (hydroxypropylcellulose) (HPC)",123 % of control
same,T/C,"dose: 1.2 mg/kg/injection, schedule: Q01DX009 (ip), vehicle: Klucel (hydroxypropylcellulose) (HPC)",115 % of control
same,T/C,"dose: 1.8 mg/kg/injection, schedule: Q01DX009 (ip), vehicle: Klucel (hydroxypropylcellulose) (HPC)",113 % of control
same,T/C,"dose: 2.5 mg/kg/injection, schedule: Q01DX001 (ip), vehicle: carboxymethylcellulose (CMC)",118 % of control
same,T/C,"dose: 4.0 mg/kg/injection, schedule: Q01DX009 (ip), vehicle: Klucel (hydroxypropylcellulose) (HPC)",151 % of control and 152 % of control (2×)
same,T/C,"dose: 5.0 mg/kg/injection, schedule: Q01DX001 (ip), vehicle: carboxymethylcellulose (CMC)",118 % of control
same,T/C,"dose: 6.0 mg/kg/injection, schedule: Q01DX009 (ip), vehicle: Klucel (hydroxypropylcellulose) (HPC)",165 % of control
same,T/C,"dose: 6.6 mg/kg/injection, schedule: Q01DX009 (ip), vehicle: carboxymethylcellulose (CMC)",206 % of control
same,T/C,"dose: 9.0 mg/kg/injection, schedule: Q01DX009 (ip), vehicle: Klucel (hydroxypropylcellulose) (HPC)",220 % of control
same,T/C,"dose: 10.0 mg/kg/injection, schedule: Q01DX009 (ip), vehicle: carboxymethylcellulose (CMC)",123 % of control
same,T/C,"dose: 13.0 mg/kg/injection, schedule: Q01DX009 (ip), vehicle: Klucel (hydroxypropylcellulose) (HPC)",167 % of control and 190 % of control
same,T/C,"dose: 15.0 mg/kg/injection, schedule: Q01DX001 (ip), vehicle: carboxymethylcellulose (CMC)",168 % of control
same,T/C,"dose: 15.0 mg/kg/injection, schedule: Q01DX009 (ip), vehicle: carboxymethylcellulose (CMC)",106 % of control
same,T/C,"dose: 20.0 mg/kg/injection, schedule: Q01DX001 (ip), vehicle: other",227 % of control
same,T/C,"dose: 20.0 mg/kg/injection, schedule: Q01DX009 (ip), vehicle: Klucel (hydroxypropylcellulose) (HPC)",92 % of control
same,T/C,"dose: 30.0 mg/kg/injection, schedule: Q01DX001 (ip), vehicle: carboxymethylcellulose (CMC)",247 % of control
same,T/C,"dose: 30.0 mg/kg/injection, schedule: Q01DX001 (ip), vehicle: other",206 % of control
same,T/C,"dose: 45.0 mg/kg/injection, schedule: Q01DX001 (ip), vehicle: other",242 % of control
same,T/C,"dose: 60.0 mg/kg/injection, schedule: Q01DX001 (ip), vehicle: carboxymethylcellulose (CMC)",193 % of control
CCC1=CC(=O)C(C)=C(C)C1=O,T/C,"dose: 25.0 mg/kg/injection, schedule: Q04DX003 (ip), vehicle: other",100 % of control
same,T/C,"dose: 50.0 mg/kg/injection, schedule: Q04DX003 (ip), vehicle: other",102 % of control
same,T/C,"dose: 100.0 mg/kg/injection, schedule: Q04DX003 (ip), vehicle: other",97 % of control and 102 % of control
Cc1cc(-c2ccccc2O)nc(N(C)CC(=O)O)n1,T/C,[4],94 % of control
same,T/C,[5],98 % of control
same,T/C,[6],96 % of control
CCSC(=O)CC,T/C,[1],104 % of control
same,T/C,[2],100 % of control
same,T/C,[3],95 % of control
